Reference: patent US7662851B2, “Use of specific cyklolignans” (Axelar AB, priority 2001, dated 2010)
Where two headings read alike, the source gives them in different places.

What was measured:
FM55 melanoma cell line = experiment: Cell viability (XTT), FM55; type: cell-based; settings: read-out: EC50 for cell viability
Experimental: Cell proliferation kit II (Roche Inc.) is based on colorimetric change of the yellow tetrazolium salt XTT in orange formazan dye by the respiratory chain of viable cells (Roehm, N W, et al., J Immunol Methods 142:257-265, 1991). Cells seeded at a concentration of 5000/well in 100 μl medium in a 96-well plate were treated with different drugs in the given concentration. After 24 or 48 h the cells were incubated, according to the manufacturer's protocol, with XTT labelling mixture. After 4 h the formazan dye is quantified using a scanning multiwell spectrophotometer with a 495-nm filter. The absorbance is directly correlated with the number of viable cells. The standard absorbance curve was drawn by means of untreated cells seeded at a concentration of from 1000 to 10 000 cells/well with an increasing rate of 1000 cells/well. All standards and experiments were performed in triplicates.
12 different types of cell lines were seeded in 96-well plates (medium volume in a well was 100 μl), at a concentration of 10,000 cells/cm^2 in Minimal Essential Medium supplemented with fetal calf serum. When the cells had reached a concentration of 65,000 cells/cm^2, they were treated with different doses of podophyllotoxin and picropodophyllin for 48 h. Cell viability was then assayed (see above). […]

IGF-1R [1] = molecular target: T1, IGF-1R (Homo sapiens, UniProt P08069); experiment: IGF-1R tyrosine autophosphorylation, sandwich ELISA, cell-free; type: biochemical; set-up: expressed in transfected cells; host or cells: P6 cell line (murine fibroblasts overexpressing human IGF-1R); receptor captured on plates with an antibody to the beta subunit
T1 sequence (P08069 31-1367): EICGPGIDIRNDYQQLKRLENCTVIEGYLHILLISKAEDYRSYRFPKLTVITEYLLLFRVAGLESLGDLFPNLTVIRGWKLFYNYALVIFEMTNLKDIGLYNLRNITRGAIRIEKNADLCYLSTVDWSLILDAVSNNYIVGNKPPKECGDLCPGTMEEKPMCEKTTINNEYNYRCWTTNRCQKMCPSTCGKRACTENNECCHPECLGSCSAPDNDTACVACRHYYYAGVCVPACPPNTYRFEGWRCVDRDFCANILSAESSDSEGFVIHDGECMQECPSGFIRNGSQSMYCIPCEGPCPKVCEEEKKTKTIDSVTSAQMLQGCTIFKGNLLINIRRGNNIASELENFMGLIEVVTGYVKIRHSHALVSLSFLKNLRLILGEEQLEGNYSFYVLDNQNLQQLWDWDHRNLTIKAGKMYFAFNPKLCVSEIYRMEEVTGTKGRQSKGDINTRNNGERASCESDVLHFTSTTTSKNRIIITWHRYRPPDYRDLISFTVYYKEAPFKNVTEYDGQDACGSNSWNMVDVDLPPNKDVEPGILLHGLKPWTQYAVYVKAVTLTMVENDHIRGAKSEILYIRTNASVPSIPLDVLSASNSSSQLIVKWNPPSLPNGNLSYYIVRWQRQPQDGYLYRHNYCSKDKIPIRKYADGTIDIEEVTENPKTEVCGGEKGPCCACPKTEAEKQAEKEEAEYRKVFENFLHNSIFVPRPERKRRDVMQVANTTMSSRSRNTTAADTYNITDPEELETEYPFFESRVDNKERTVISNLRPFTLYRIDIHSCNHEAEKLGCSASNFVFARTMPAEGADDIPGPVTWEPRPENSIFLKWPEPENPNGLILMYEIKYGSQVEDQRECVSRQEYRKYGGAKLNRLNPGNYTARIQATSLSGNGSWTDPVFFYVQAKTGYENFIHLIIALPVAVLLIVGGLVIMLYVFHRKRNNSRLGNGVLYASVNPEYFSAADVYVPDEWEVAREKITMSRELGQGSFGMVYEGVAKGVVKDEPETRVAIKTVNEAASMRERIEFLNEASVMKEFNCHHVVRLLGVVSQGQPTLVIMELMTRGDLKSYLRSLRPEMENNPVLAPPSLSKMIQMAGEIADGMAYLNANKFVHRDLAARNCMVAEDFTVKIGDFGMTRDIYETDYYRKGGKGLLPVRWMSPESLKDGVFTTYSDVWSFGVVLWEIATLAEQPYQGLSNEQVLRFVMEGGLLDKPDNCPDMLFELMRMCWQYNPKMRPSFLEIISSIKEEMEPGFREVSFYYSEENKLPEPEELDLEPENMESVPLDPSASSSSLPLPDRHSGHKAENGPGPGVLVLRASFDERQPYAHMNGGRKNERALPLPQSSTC
Experimental: IGF-1R tyrosine autophosphorylation was analysed by a sandwich ELISA assay. Briefly, 96-well plates (Immunolon, Nunc) were coated overnight at 4° C. with 1 μg/well of the monoclonal antibody Ab-5 (LabVision) to the IGF-1R beta subunit. The plates were blocked with 1% BSA in PBS Tween for 1 h, then 80 µg/well of total protein lysate from the P6 cell line was added. As a negative control was used total protein lysate from the R-cell line. The investigated compounds were added in tyrosine kinase buffer without ATP at room temperature for 30 min, prior to kinase activation with ATP. Kinase assay was performed using the Sigma kit. After spectrophotometry the IC50 values of inhibitors were determined using the Regression function of Statistica program.
To investigate whether PPP interferes with the tyrosine autophosphorylation at the ATP level or at the substrate level (i.e., the tyrosine kinase domain of the IGF-1R […]), various concentrations of ATP (19-300 μM) were added to the reaction buffer during the assay.

IGF-1R [2] = molecular target: T1, IGF-1R; experiment: IGF-1R phosphorylation in various malignant cell types (EC50); type: cell-based; set-up: endogenous in cells; host or cells: 12 malignant cell lines (e.g. SK-MEL-2, SK-MEL-5, SK-MEL-28); settings: 1 h
Experimental: (§1) Cells were cultured to subconfluency in 6-cm plates, and then fresh medium containing 10% FBS and the desired compounds were added for 1 h. The cells were then lyzed and subjected to immunoprecipitation using specific antibodies. Immunoprecipitates were resolved by sodium dodecyl sulphate polyacrylamide gel electrophoresis (SDS-PAGE) and transferred to nitro-cellulose membranes and incubated with anti-phosphotyrosine antibody. Antibodies to actin (in cell extract) or IGF-1R beta subunit were used as loading controls. After detection the films were scanned for quantification.
12 cell lines of different origins were seeded in 6-cm dishes, at a concentration of 10,000 cells/cm^2 in Minimal Essential Medium supplemented with fetal calf serum (FCS). When the cells had reached a concentration of 65,000 cells/cm^2, they were treated with 0, 0.01, 0.025, 0.05, 0.1 or 1.0 uM doses of podophyllotoxin and picropodophyllin for 1 h. The cells were then harvested for assay and quantification of IGF-1R phosphorylation as described above. The EC50 value, the Efficient Concentration 50%, i.e. the concentration needed to reduce the phosphorylation with 50%, for each inhibitor and cell line, is then calculated. The results are based on two different experiments.

[3] = system: insulin substrate-1 (IRS-1); experiment: Phosphorylation of IRS-1 in intact FM55 melanoma cells; type: cell-based; settings: 0.05 μM, 1 h
Experimental: as §1
(§2) FM55 melanoma cells were cultured in the same way as described in Experiment 1. When reaching a density of 65,000 cells/cm^2 in the dishes, they were treated for 1 h with 0 (control) and 0.05 μM of picropodophyllin and podophyllotoxin, respectively. The cells were then isolated and subjected to immunoprecipitation of the IGF-1R, fibroblast growth factor receptor (FGFR), platelet-derived growth factor receptor (PDGFR), epidermal growth factor receptor (EGFR), insulin receptor (IR) and insulin substrate-1 (IRS-1) using antibodies to respective molecules. IRS-1 is a substrate of IGF-1R, and therefore its phosphorylation is dependent on phosphorylated IGF-1R. Gelelectrophoresis, Western blotting and quantification of the different signals were performed as described above.

[4] = system: fibroblast growth factor receptor (FGFR); experiment: Tyrosine phosphorylation of FGFR in intact FM55 melanoma cells; type: cell-based; settings: 0.05 μM, 1 h
Experimental: as §1, §2

[5] = P6 fibroblasts with overexpressed IGF-1R

Compound	EC50 (FM55 melanoma cell line; FM55, 48 h) [µM]	IC50 (IGF-1R [1]; cell-free, ATP 19-300 μM in reaction buffer, read-out: IC50, autophosphorylation of IGF-1R at various ATP concentrations) [µM]	IC50 (IGF-1R [1]; cell-free, FIG. 4, read-out: IC50, autophosphorylation of IGF-1R) [µM]	EC50 (IGF-1R [2]; FM55 melanoma) [µM]	EC50 (IGF-1R [2]; MCF-7 breast cancer) [µM]	EC50 (IGF-1R [2]; [5]) [µM]	EC50 (IGF-1R [2]; PC-3 prostate cancer) [µM]	EC50 (IGF-1R [2]; RD-ES Ewing's sarcoma) [µM]	EC50 (IGF-1R [2]; SK-MEL-5 melanoma) [µM]	EC50 (IGF-1R [2]; SK-MEL-28 melanoma) [µM]	Level of phosphorylation in intact cells, substrate IRS-1 [3] [% OD]	Level of phosphorylation in intact cells, substrate FGFR [4] [% OD]	EC50 (FM55 melanoma cell line; 48 h) [µM]	IC50 (IGF-1R [1]; in vitro, stated in description, read-out: IC50 for IGF-1R-inhibition when tested in vitro) [µM]	EC50 (IGF-1R [2]; BE melanoma) [µM]	EC50 (IGF-1R [2]; DWB melanoma) [µM]	EC50 (IGF-1R [2]; SK-MEL-2 melanoma) [µM]
COc1cc([C@@H]2c3cc4c(cc3[C@H](O)[C@H]3COC(=O)[C@@H]23)OCO4)cc(OC)c1OC [Picropodophyllin, picropodophyllin]	0.07	0.001 to 0.002	~0.001	0.06	0.04	0.03	0.09	0.05	0.04	0.04	17	100	–	–	–	–	–
COc1cc([C@@H]2c3cc4c(cc3[C@H](O)[C@H]3COC(=O)[C@H]23)OCO4)cc(OC)c1OC [Podophyllotoxin, podophyllotoxin]	–	–	–	0.04	0.05	0.02	0.06	0.03	0.03	0.03	10	105	0.04	0.001	0.04	0.03	0.04
